Several values for one entry are separate records, joined by “and”; a condition that tells them apart may be missing. Identical values can stand only once. Entries after “also recorded” stand apart in the source; their conditions may differ. Counter-ions that a name gives are not always drawn. One block for each compound: values may come before it.
Legend:
[1] = Solubility; type: physicochemical
[2] = Stability in aqueous solution; type: physicochemical; settings: pH 3-9, heating at 60° C. for 10 minutes
[3] = system: Escherichia coli IFO 12734; assay: Antibiotic-potentiating activity, paper disc growth inhibition zone, Escherichia coli IFO 12734; type: cell-based
Protocol: The potency of the compound of the formula (II) can be determined, for instance, by the cup method or paper disc method using bouillon agar containing 0.05 μg/ml of cefmenoxime with Escherichia coli IFO 12734 as the test organism. […]
(§1) *The test was performed using a bouillon agar medium containing the
antibiotic as specified and a paper disc, 8 mm in diameter.
**A paper disc, 8 mm in diameter, was impregnated with 25 μl of the […]

[4] = system: Proteus mirabilis ATCC 21100; assay: Antibiotic-potentiating activity, paper disc growth inhibition zone, Proteus mirabilis ATCC 21100; type: cell-based
Protocol: as §1
antibiotic as specified and a paper disc, 8 mm in diameter. […]
*The test was performed under the same conditions as noted for Table 1
except for the test organism and the concentration of each coexisting

[5] = system: Escherichia coli IFO 12734; assay: Inhibition of growth of Escherichia coli in liquid culture (absorbance at 600 nm); type: cell-based
Protocol: Table 5: Inhibition of growth of Escherichia coli IFO 12734 in the copresence of F2 (obtained in Example 1) and cephalexin or cefmenoxime.
(§2) To 8 ml of YAB medium (1.75% Difco antibiotic medium No. 3, 0.5% Difco yeast extract) containing 12% (w/v) of sucrose, there were added 1 ml of water, 50 μg/ml cephalexin solution or 10 μg/ml cefmenoxime solution, and the medium was inoculated with 1 ml of a preculture in YAB medium at an early logarithmic growth phase and incubated with shaking at 37° C. for 2 hours. Thereafter, the absorbance of the culture broth was measured at 600 nm using a Shimadzu-Bausch & Lomb Spectronic 20 colorimeter.

[6] = system: Escherichia coli; assay: Observation of the culture broths under a phase contrast microscope; type: cell-based; settings: for Form of cells under phase contrast microscope: antibiotic alone, F2 or F3 not added
Protocol: as §2

[7] = system: Escherichia coli IFO 12734; assay: Inhibition of growth of Escherichia coli in liquid culture (absorbance at 600 nm); type: cell-based; remark: listed apart in the source
[8] = system: β-lactamase producing bacteria; settings: D. A. Leigh et al., 1981; cited from earlier work
[9] = system: β-lactamases; settings: D. A. Leigh et al., 1981; cited from earlier work
[10] = petroleum ether, hexane, diethyl ether, benzene, ethyl acetate and chloroform
[11] = F3 of Example 5, 1 μg/ml in test solution, no addition
[12] = F3 of Example 5, 5 μg/ml in test solution, no addition
[13] = F3 of Example 5, 25 μg/ml in test solution, no addition
[14] = F3 of Example 5, 125 μg/ml in test solution, no addition
[15] = F3 of Example 5, 1000 μg/ml in test solution, no addition

Solubility ([1]; acetone): only sparingly soluble
Solubility ([1]; dimethyl sulfoxide): soluble
Solubility ([1]; ethanol and pyridine): only sparingly soluble
Solubility ([1]; methanol): soluble
Solubility [1, 10]: Insoluble
Solubility ([1]; water): readily soluble
Stability [2]: Stable
SMILES: CC(=O)NC1C(OC2CC(C(=O)O)NC2CO)OC(CO)C(OS(=O)(=O)O)C1O (stereo not shown) [F3 monosodium salt]

SMILES: CC(=O)NC1C(OC2CC(C(=O)O)NC2CO)OC(CO)C(OS(=O)(=O)O)C1O (stereo not shown) [F3]
Diameter of growth inhibition zone ([3]; F3 of Example 5, 1 μg/ml in test solution, 0.03 μg/ml of mecillinam): < 8 mm
Diameter of growth inhibition zone ([3]; F3 of Example 5, 1 μg/ml in test solution, 0.05 μg/ml of cefmenoxime): 10 mm
Diameter of growth inhibition zone [3, 11]: < 8 mm
Diameter of growth inhibition zone ([3]; F3 of Example 5, 5 μg/ml in test solution, 0.03 μg/ml of mecillinam): < 8 mm
Diameter of growth inhibition zone ([3]; F3 of Example 5, 5 μg/ml in test solution, 0.05 μg/ml of cefmenoxime): 12.5 mm
Diameter of growth inhibition zone [3, 12]: < 8 mm
Diameter of growth inhibition zone ([3]; F3 of Example 5, 25 μg/ml in test solution, 0.03 μg/ml of mecillinam): 9 mm
Diameter of growth inhibition zone ([3]; F3 of Example 5, 25 μg/ml in test solution, 0.05 μg/ml of cefmenoxime): 15 mm
Diameter of growth inhibition zone [3, 13]: < 8 mm
Diameter of growth inhibition zone ([3]; F3 of Example 5, 125 μg/ml in test solution, 0.03 μg/ml of mecillinam): 17.5 mm
Diameter of growth inhibition zone ([3]; F3 of Example 5, 125 μg/ml in test solution, 0.05 μg/ml of cefmenoxime): 26 mm
Diameter of growth inhibition zone [3, 14]: < 8 mm
Diameter of growth inhibition zone ([3]; F3 of Example 5, 1000 μg/ml in test solution, 0.03 μg/ml of mecillinam): 28.5 mm
Diameter of growth inhibition zone ([3]; F3 of Example 5, 1000 μg/ml in test solution, 0.05 μg/ml of cefmenoxime): 38 mm
Diameter of growth inhibition zone [3, 15]: < 8 mm
Diameter of growth inhibition zone ([4]; F3 of Example 5, 1 μg/ml in test solution, 0.01 μg/ml of cefmenoxime): 9 mm
Diameter of growth inhibition zone ([4]; F3 of Example 5, 1 μg/ml in test solution, 0.05 μg/ml of mecillinam): < 8 mm
Diameter of growth inhibition zone [4, 11]: < 8 mm
Diameter of growth inhibition zone ([4]; F3 of Example 5, 5 μg/ml in test solution, 0.01 μg/ml of cefmenoxime): 12 mm
Diameter of growth inhibition zone ([4]; F3 of Example 5, 5 μg/ml in test solution, 0.05 μg/ml of mecillinam): 9 mm
Diameter of growth inhibition zone [4, 12]: < 8 mm
Diameter of growth inhibition zone ([4]; F3 of Example 5, 25 μg/ml in test solution, 0.01 μg/ml of cefmenoxime): 21 mm
Diameter of growth inhibition zone ([4]; F3 of Example 5, 25 μg/ml in test solution, 0.05 μg/ml of mecillinam): 13.5 mm
Diameter of growth inhibition zone [4, 13]: < 8 mm
Diameter of growth inhibition zone ([4]; F3 of Example 5, 125 μg/ml in test solution, 0.01 μg/ml of cefmenoxime): 28.5 mm
Diameter of growth inhibition zone ([4]; F3 of Example 5, 125 μg/ml in test solution, 0.05 μg/ml of mecillinam): 19 mm
Diameter of growth inhibition zone [4, 14]: < 8 mm
Diameter of growth inhibition zone ([4]; F3 of Example 5, 1000 μg/ml in test solution, 0.01 μg/ml of cefmenoxime): 32.5 mm
Diameter of growth inhibition zone ([4]; F3 of Example 5, 1000 μg/ml in test solution, 0.05 μg/ml of mecillinam): 30 mm
Diameter of growth inhibition zone [4, 15]: < 8 mm
Inhibition of growth of Escherichia coli ([5]; in the presence of cephalexin or cefmenoxime, decrease in absorbance): inhibits the growth of Escherichia coli
Swelling and bacteriolysis under phase contrast microscope ([6]; in the presence of cephalexin or cefmenoxime): partial swelling occurred and bacteriolysis proceeded
Elongation of cells under phase contrast microscope ([6]; in the presence of cephalexin or cefmenoxime, in dependence on the addition level): elongation was inhibited
Absorbance at 600 nm ([7]; final F3 (Example 5) 1 μg/ml, 1 μg/ml of cefmenoxime): 2.2
Absorbance at 600 nm ([7]; final F3 (Example 5) 1 μg/ml, no addition): 3.7
Absorbance at 600 nm ([7]; final F3 (Example 5) 10 μg/ml, 1 μg/ml of cefmenoxime): 0.6
Absorbance at 600 nm ([7]; final F3 (Example 5) 10 μg/ml, no addition): 3.7
Absorbance at 600 nm ([7]; final F3 (Example 5) 100 μg/ml, 1 μg/ml of cefmenoxime): 0.6
Absorbance at 600 nm ([7]; final F3 (Example 5) 100 μg/ml, no addition): 3.7

SMILES: CC(=O)NC1C(OC2CC(C(=O)NCCS(=O)(=O)O)NC2CO)OC(CO)C(O)C1O (stereo not shown) [F4]
Diameter of growth inhibition zone ([3]; F4 of Example 7, 10 μg/ml in test solution, 0.03 μg/ml mecillinam): < 8 mm
Diameter of growth inhibition zone ([3]; F4 of Example 7, 10 μg/ml in test solution, 0.05 μg/ml cefmenoxime): < 8 mm
Diameter of growth inhibition zone ([3]; F4 of Example 7, 10 μg/ml in test solution, no addition): < 8 mm
Diameter of growth inhibition zone ([3]; F4 of Example 7, 100 μg/ml in test solution, 0.03 μg/ml mecillinam): 13 mm
Diameter of growth inhibition zone ([3]; F4 of Example 7, 100 μg/ml in test solution, 0.05 μg/ml cefmenoxime): 15 mm
Diameter of growth inhibition zone ([3]; F4 of Example 7, 100 μg/ml in test solution, no addition): < 8 mm
Diameter of growth inhibition zone ([3]; F4 of Example 7, 1000 μg/ml in test solution, 0.03 μg/ml mecillinam): 23 mm
Diameter of growth inhibition zone ([3]; F4 of Example 7, 1000 μg/ml in test solution, 0.05 μg/ml cefmenoxime): 26 mm
Diameter of growth inhibition zone ([3]; F4 of Example 7, 1000 μg/ml in test solution, no addition): < 8 mm

SMILES: CO/N=C(\C(=O)N[C@@H]1C(=O)N2C(C(=O)O)=C(CSc3nnnn3C)CS[C@H]12)c1csc(N)n1 [cefmenoxime, reference compound]
Diameter of growth inhibition zone ([3]; 0.05 μg/ml cefmenoxime alone (F2, F3 or F4 0 μg/ml)): < 8 mm
Diameter of growth inhibition zone ([4]; 0.01 μg/ml cefmenoxime alone (F2 or F3 0 μg/ml)): < 8 mm
Absorbance at 600 nm ([5]; 1 μg/ml cefmenoxime alone (F2 or F3 0 μg/ml)): 1.95 and 1.90 and 2.9
Form of cells under phase contrast microscope [6]: much elongated form

SMILES: CC1=C(C(=O)O)N2C(=O)[C@@H](NC(=O)[C@H](N)c3ccccc3)[C@H]2SC1 [cephalexin, reference compound]
Absorbance at 600 nm ([5]; 5 μg/ml cephalexin alone (F2 0 μg/ml)): 2.35 and 2.15
Form of cells under phase contrast microscope [6]: much elongated form

SMILES: O=C(O)[C@H]1/C(=C/CO)O[C@@H]2CC(=O)N21 [clavulanic acid]
Potentiation of activity of β-lactam antibiotics against β-lactamase producing bacteria [8]: synergistically potentiates their activity
Inactivation of β-lactam antibiotics by β-lactamases [9]: prevents inactivation

Solubility ([1]; acetone): Insoluble
Solubility ([1]; dimethyl sulfoxide): soluble
Solubility [1, 10]: Insoluble
Solubility ([1]; water): readily soluble
Stability [2]: Stable
SMILES: CC(=O)NC1C(OC2CC(C(=O)NCCS(=O)(=O)O)NC2CO)OC(CO)C(OS(=O)(=O)O)C1O (stereo not shown) [disodium salt of F2]
Solubility ([1]; ethanol and pyridine): spargingly soluble; also recorded: sparingly soluble
Solubility ([1]; methanol): spargingly soluble; also recorded: sparingly soluble

SMILES: CC1(C)S[C@@H]2[C@H](/N=C/N3CCCCCC3)C(=O)N2[C@H]1C(=O)O [mecillinam, reference compound]
Diameter of growth inhibition zone ([3]; 0.03 μg/ml mecillinam alone (F2, F3 or F4 0 μg/ml)): < 8 mm
Diameter of growth inhibition zone ([4]; 0.05 μg/ml mecillinam alone (F2 or F3 0 μg/ml)): < 8 mm

Solubility ([1]; acetone): sparingly soluble
Solubility ([1]; dimethyl sulfoxide): soluble
Solubility ([1]; ethanol and pyridine): sparingly soluble
Solubility ([1]; methanol): soluble
Solubility [1, 10]: Insoluble
Solubility ([1]; water): readily soluble
Stability [2]: Stable
SMILES: CC(=O)NC1C(OC2CC(C(=O)NCCS(=O)(=O)O)NC2CO)OC(CO)C(OS(=O)(=O)O)C1O (stereo not shown) [monosodium salt of F2]
